The source of these data is PubChem BioAssay AID248 (DTP/NCI, 2004).

In this test the test system is L1210 leukemia ip in BDF1 mice, survival T/C. The test is described as follows: NCI In Vivo Anticancer Drug Screen. Data for tumor model L1210 Leukemia (intraperitoneal) in B6D2F1 (BDF1) mice. The following applies: endpoint: mean survival time, higher = longer survival. In a few lines: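 Antitumor effect is assessed in tumor-bearing animals. Survival in the compound arm is compared with a vehicle-dosed control arm and expressed as their quotient.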

[1] abbreviates: dose: 50.0 mg/kg/injection, schedule: Q01DX001 (ip), vehicle: carboxymethylcellulose (CMC).
[2] abbreviates: dose: 50.0 mg/kg/injection, schedule: Q01DX009 (ip), vehicle: saline with Tween-80.
Where [3] appears, read: dose: 100.0 mg/kg/injection, schedule: Q01DX001 (ip), vehicle: carboxymethylcellulose (CMC).
Setting [4] is: dose: 200.0 mg/kg/injection, schedule: Q01DX001 (ip), vehicle: carboxymethylcellulose (CMC).
Where [5] appears, read: dose: 50.0 mg/kg/injection, schedule: Q01DX009 (ip), vehicle: Klucel (hydroxypropylcellulose) (HPC).
Setting [6] is: dose: 100.0 mg/kg/injection, schedule: Q01DX009 (ip), vehicle: Klucel (hydroxypropylcellulose) (HPC).
Where [7] appears, read: dose: 100.0 mg/kg/injection, schedule: Q04DX003 (ip), vehicle: Klucel (hydroxypropylcellulose) (HPC).
Setting [8] is: dose: 200.0 mg/kg/injection, schedule: Q01DX009 (ip), vehicle: Klucel (hydroxypropylcellulose) (HPC).
Setting [9] is: dose: 200.0 mg/kg/injection, schedule: Q04DX003 (ip), vehicle: Klucel (hydroxypropylcellulose) (HPC).
Setting [10] is: dose: 400.0 mg/kg/injection, schedule: Q04DX003 (ip), vehicle: Klucel (hydroxypropylcellulose) (HPC).
The mark [11] stands for this setting: dose: 100.0 mg/kg/injection, schedule: Q04DX003 (ip), vehicle: saline with Tween-80.

Several values for one entry are separate records, joined by “and”; a condition that tells them apart may be missing. Equal values may be shown once. Inconclusive results and toxic doses are left out.

Regarding `NNC(=O)c1ccc(N)cc1`, the T/C was 95 % of control under setting [1]; 93 % of control under setting [2]; 86 % of control under setting [3]; 104 % of control (dose: 100.0 mg/kg/injection, schedule: Q01DX009 (ip), vehicle: saline with Tween-80); 95 % of control under setting [4]; 100 % of control (dose: 200.0 mg/kg/injection, schedule: Q01DX009 (ip), vehicle: saline with Tween-80). Also, the T/C (dose: 400.0 mg/kg/injection, schedule: Q01DX001 (ip), vehicle: carboxymethylcellulose (CMC)) is 103 % of control.

Regarding `O=C(O)c1ccc[nH]1`, the T/C reads like this: (dose: 100.0 mg/kg/injection, schedule: Q04DX002 (ip), vehicle: saline with Tween-80) 102 % of control; (dose: 200.0 mg/kg/injection, schedule: Q04DX002 (ip), vehicle: saline with Tween-80) 87 % of control; (dose: 400.0 mg/kg/injection, schedule: Q04DX002 (ip), vehicle: saline with Tween-80) 98 % of control.

Take `O=C(O)c1ccc(OCCOc2ccccc2)c(Cl)c1`: the T/C was 97 % of control (dose: 100.0 mg/kg/injection, schedule: Q01DX009 (ip), vehicle: gum acacia); 88 % of control (dose: 200.0 mg/kg/injection, schedule: Q01DX009 (ip), vehicle: gum acacia); 92 % of control (dose: 400.0 mg/kg/injection, schedule: Q01DX009 (ip), vehicle: gum acacia).

Consider `SC1c2ccccc2-c2ccc(Br)cc21` (centres undefined), for which the T/C was 101 % of control (dose: 100.0 mg/kg/injection, schedule: Q01DX001 (ip), vehicle: saline); 99 % of control (dose: 200.0 mg/kg/injection, schedule: Q01DX001 (ip), vehicle: saline); 97 % of control (dose: 400.0 mg/kg/injection, schedule: Q01DX001 (ip), vehicle: saline).

For `COc1ccc(NC(=O)Oc2ccccc2Cc2ccccc2)cc1`, the T/C is 95 % of control under setting [5]; 94 % of control under setting [6]; 97 % of control under setting [7]; 103 % of control under setting [8]; 91 % of control under setting [9].

Regarding `COc1ccccc1-n1c(O)c(N=Nc2ccc(Cl)cc2)c(=O)n(-c2ccc(Br)cc2)c1=S`, the T/C is 89 % of control (dose: 100.0 mg/kg/injection, schedule: Q01DX001 (ip), vehicle: Klucel (hydroxypropylcellulose) (HPC)) and 92 % of control (dose: 200.0 mg/kg/injection, schedule: Q01DX001 (ip), vehicle: Klucel (hydroxypropylcellulose) (HPC)).

Turning to `COc1ccc(OC)c2c(=O)cc[nH]c12`, the T/C under setting [3] was 103 % of control and the T/C under setting [4] is 94 % of control.

Consider `O=CC(O)C(O)C(OC1OC(CO)C(O)C(O)C1O)C(O)CO` (centres undefined), for which the T/C reads like this: (dose: 100.0 mg/kg/injection, schedule: Q04DX002 (ip), vehicle: carboxymethylcellulose (CMC)) 93 % of control and 117 % of control; (dose: 100.0 mg/kg/injection, schedule: Q04DX003 (ip), vehicle: carboxymethylcellulose (CMC)) 99 % of control; (dose: 200.0 mg/kg/injection, schedule: Q04DX002 (ip), vehicle: carboxymethylcellulose (CMC)) 93 % of control and 92 % of control; (dose: 200.0 mg/kg/injection, schedule: Q04DX003 (ip), vehicle: carboxymethylcellulose (CMC)) 96 % of control; (dose: 400.0 mg/kg/injection, schedule: Q04DX002 (ip), vehicle: carboxymethylcellulose (CMC)) 100 % of control and 86 % of control; (dose: 400.0 mg/kg/injection, schedule: Q04DX003 (ip), vehicle: carboxymethylcellulose (CMC)) 87 % of control.

Turning to `N#Cc1ccccc1NC(=S)Nc1ccc([N+](=O)[O-])cc1`, the T/C runs as follows: (dose: 12.5 mg/kg/injection, schedule: Q01DX009 (ip), vehicle: saline with Tween-80) 95 % of control; (dose: 25.0 mg/kg/injection, schedule: Q01DX009 (ip), vehicle: saline with Tween-80) 100 % of control; under setting [2], 95 % of control and 88 % of control.

Consider `COc1cc(-c2ccc(-[n+]3nc(-c4ccc([N+](=O)[O-])cc4)nn3-c3ccc([N+](=O)[O-])cc3)c(OC)c2)ccc1-[n+]1nc(-c2ccc([N+](=O)[O-])cc2)nn1-c1ccc([N+](=O)[O-])cc1`, for which the T/C by setting is: (dose: 15.0 mg/kg/injection, schedule: Q01DX001 (ip), vehicle: carboxymethylcellulose (CMC)) 89 % of control; (dose: 30.0 mg/kg/injection, schedule: Q01DX001 (ip), vehicle: carboxymethylcellulose (CMC)) 104 % of control; (dose: 60.0 mg/kg/injection, schedule: Q01DX001 (ip), vehicle: carboxymethylcellulose (CMC)) 93 % of control.

As to `CCCCN(C=O)c1ccccc1`, the T/C reads like this: under setting [6], 108 % of control; under setting [7], 97 % of control; under setting [8], 104 % of control; under setting [9], 103 % of control; (dose: 400.0 mg/kg/injection, schedule: Q01DX009 (ip), vehicle: Klucel (hydroxypropylcellulose) (HPC)) 87 % of control; under setting [10], 97 % of control.

On to `CC(=O)OC(C#N)c1cccc([N+](=O)[O-])c1` (centres undefined), for which the T/C is 97 % of control (dose: 6.25 mg/kg/injection, schedule: Q04DX002 (ip), vehicle: Klucel (hydroxypropylcellulose) (HPC)); 102 % of control (dose: 12.5 mg/kg/injection, schedule: Q04DX002 (ip), vehicle: Klucel (hydroxypropylcellulose) (HPC)); 100 % of control and 92 % of control (dose: 25.0 mg/kg/injection, schedule: Q04DX002 (ip), vehicle: Klucel (hydroxypropylcellulose) (HPC)).

`NC1(C(=O)O)CCCc2ccc(N(CCCl)CCCl)cc21` (centres undefined): the T/C by setting is: (dose: 0.45 mg/kg/injection, schedule: Q01DX009 (ip), vehicle: carboxymethylcellulose (CMC)) 101 % of control; (dose: 0.95 mg/kg/injection, schedule: Q01DX009 (ip), vehicle: carboxymethylcellulose (CMC)) 124 % of control; (dose: 1.8 mg/kg/injection, schedule: Q01DX009 (ip), vehicle: carboxymethylcellulose (CMC)) 119 % of control; (dose: 6.0 mg/kg/injection, schedule: Q01DX001 (ip), vehicle: carboxymethylcellulose (CMC)) 121 % of control; (dose: 8.3 mg/kg/injection, schedule: Q01DX009 (ip), vehicle: carboxymethylcellulose (CMC)) 152 % of control; (dose: 10.8 mg/kg/injection, schedule: Q01DX009 (ip), vehicle: carboxymethylcellulose (CMC)) 168 % of control. Besides, the T/C (dose: 11.0 mg/kg/injection, schedule: Q01DX001 (ip), vehicle: carboxymethylcellulose (CMC)) is 114 % of control and 124 % of control; the T/C (dose: 12.5 mg/kg/injection, schedule: Q01DX009 (ip), vehicle: carboxymethylcellulose (CMC)) was 163 % of control and 165 % of control; the T/C (dose: 16.0 mg/kg/injection, schedule: Q01DX001 (ip), vehicle: carboxymethylcellulose (CMC)) was 112 % of control; the T/C (dose: 18.0 mg/kg/injection, schedule: Q01DX009 (ip), vehicle: carboxymethylcellulose (CMC)) was 161 % of control; the T/C (dose: 48.0 mg/kg/injection, schedule: Q01DX001 (ip), vehicle: carboxymethylcellulose (CMC)) is 114 % of control; the T/C under setting [1] is 123 % of control.

With `NC(CSC1c2ccccc2-c2ccccc21)C(=O)O` (centres undefined), the T/C by setting is: (dose: 75.0 mg/kg/injection, schedule: Q01DX001 (ip), vehicle: carboxymethylcellulose (CMC)) 96 % of control; (dose: 150.0 mg/kg/injection, schedule: Q01DX001 (ip), vehicle: carboxymethylcellulose (CMC)) 98 % of control; (dose: 300.0 mg/kg/injection, schedule: Q01DX001 (ip), vehicle: carboxymethylcellulose (CMC)) 101 % of control.

On to `C/C(CCC(=O)O)=N\NC(=O)Cc1cccc2ccccc12`, for which the T/C under setting [7] is 94 % of control, the T/C under setting [9] was 102 % of control and the T/C under setting [10] is 102 % of control.

Turning to `O=Cc1[nH]c(=S)[nH]c(=O)c1Cc1ccc([N+](=O)[O-])cc1`, the T/C reads like this: under setting [11], 93 % of control; (dose: 200.0 mg/kg/injection, schedule: Q04DX003 (ip), vehicle: saline with Tween-80) 92 % of control; (dose: 400.0 mg/kg/injection, schedule: Q04DX003 (ip), vehicle: saline with Tween-80) 100 % of control.

Consider `O=C(NCP(=O)(O)O)c1cccnc1`, for which the T/C reads like this: (dose: 100.0 mg/kg/injection, schedule: Q04DX003 (ip), vehicle: saline sonified) 94 % of control; (dose: 200.0 mg/kg/injection, schedule: Q04DX003 (ip), vehicle: saline sonified) 100 % of control; (dose: 400.0 mg/kg/injection, schedule: Q04DX003 (ip), vehicle: saline sonified) 102 % of control.

Consider `NP(=O)(CCl)NC12CC3CC(CC(C3)C1)C2` (centres undefined), for which the T/C is 86 % of control under setting [5], 95 % of control under setting [6] and 93 % of control under setting [8].

`CN1CCN(C2CCCCc3ccccc32)CC1` (centres undefined): the T/C under setting [11] was 95 % of control.
